Data taken from patent US20140106387A1, “METHOD FOR CONTROLLING NAD(P)/NAD(P)H RATIO BY OXIDOREDUCTASE” (MD BIOALPHA CO., LTD., priority 2006, published 2014).

Key:
AMPK, ACC = assay: AMPK and ACC phosphorylation in HepG2 cells (Western blot); assay type: cell-based, human
Experimental: Cells were lysed in SDS sample buffer (62.5 mM Tris HCl (pH 6.8), 6% (w/v) SDS, 30% glycerol, 125 mM DTT, and 0.03% (w/v) bromophenol blue). The total cell lysates were boiled at a temperature of 100° C. for 5 min and electrophoresed on a sodium dodecyl sulfate-polyacrylamide gel, and proteins were transferred on a nitrocellulose membrane. The membrane was reacted in TBS (5% (w/v) milk and 0.1% Tween 20) for 1 hour, and then reacted with primary antibodies for 2 hours. Next, the membrane was developed using HRP-conjugated secondary antibodies (Phototope-HRP Western Blot Detection Kit, New England Biolabs, Beverly, Mass.).
HepG2 (human hepatoma cell line), HEK293 (Human embryonic kidney cell line), and C2C12/L6 myoblasts were purchased from American Type Culture Collection (ATCC, Manassas, Va., USA). LKB−/− MEFs were purchased from R.A. DePinho. Rat ventricular myocytes were enzymatically isolated from the heart of adult […] by a known method. Phosphorylation of AMPK (Thr172) and ACC (Ser79) was measured by Western blot analysis using Cell Signaling Technologies and pan- and phospho-specific antibodies (Upstate Biotechnology, Inc., Lake Placid, N.Y.).
This Example was carried out to confirm whether an NQO1 activator has effects through NQO1 on phosphorylation of AMPK and ACC that are intracellular energy-regulating proteins. In order to examine phosphorylation of AMP kinase and ACC (acetyl-CoA carboxylase) by the NQO1 activator pyrano-1,2-naphthoquinone, HepG2 cells (Human hepatoma cell line) were seeded onto a 6-well plate at a density of 1×10^5 cells per well, and cultured in a RPMI+10% FBS medium. After growing the cells for 24 hours, the culture medium was replaced with a serum-free RPMI medium and cells were treated with pyrano-1,2-naphthoquinone (10 μM) for 30 min, 1 hr, 2 hrs, 4 hrs and 6 hrs, in combination with a control (DMSO). Anti-ACC and Anti-pS79-ACC were used to observe phosphorylated ACC, whereas Anti-AMPK and Anti-pT172-AMPK were used to observe phosphorylated AMP kinase.
In order to investigate the importance of an NQO1 protein in phosphorylation of AMP kinase, HepG2, MCF-7 and HEK293 cells were seeded onto 60 mm plates at a density of 1×10^6 cells/plate. After growing the cells for 24 hours, the culture medium was replaced with a serum-free medium, and cells were treated with pyrano-1,2-naphthoquinone (10 μM) for 30 min, respectively, in combination with a control group (DMSO). Cells were lysed in RIPA buffer and amounts of all proteins were quantified using a spectrophotometer, and 50 μg of the protein was subjected to electrophoresis. AMP kinase phosphorylation was examined using Anti-AMPK and Anti-pT172-AMPK, whereas the NQO1 protein was assayed using Anti-NQO1. […]

HEK293 cells = assay: intracellular ATP, ADP and AMP levels by LC-MS in HEK293; assay type: cell-based, human; settings: HEK293 cells having no NQO1 activity, 2 hours
Experimental: Samples were analyzed using an Agilent 1100 series LC/MSD system equipped with G1322A degasser, G1312A binary pump, G1315A photo-diode-array detector, 59987A electrospray interface and 5989B mass spectrometer. ES-MS analysis was performed using an Agilent 5989 electrospray (ES) mass spectrometer (MS) with an Agilent Atmospheric Pressure Ionization (API) interface fitted with a hexapole ion guide. Chromatogram was automatically integrated with the aid of Chemstation software, and concentrations were determined using a standard calibration curve.
Acid extraction was used for analysis of an AOPN concentration in the cells and liver tissues. 400 μl of 6% HClO4 was added to the cells cultured in a 100 mm dish, whereas a two-fold volume of 6% HClO4 was added to the liver tissues which were then immediately homogenized. Each mixture was centrifuged at 14,000 g and 4° C. for 10 min, and the resulting supernatants were neutralized by addition of 1 M borate buffer (pH 11) containing 4 mM EDTA in an amount of 75%. Samples were aliquoted and stored at a temperature of −80° C.
A mobile phase was 100 mM ammonium acetate:MeOH (98:2, v/v), and preparations were filtered through a 0.22-μm Millipore filter. A flow rate was set to 0.8 mL/min and detection was made at 254 nm. Separation was carried out using a ZORBAX Bonus-RP C18 column (3.5 μm, 4.6×150 mm I.D., Waters, USA). […]

MN9D cells = assay: intracellular ATP concentration in dopaminergic neuronal cells; assay type: cell-based; settings: 5 μM
Experimental: Dopaminergic (MN9D) and non-dopaminergic (MN9X) neuronal cells were treated with 5 μM pyran-1,2-naphthoquinone and the ATP concentration was periodically measured.

Compound: CC1(C)CCC2=C(O1)c1ccccc1C(=O)C2=O [βL, 2,2-Dimethyl-3,4-dihydro-2H-benzo[h]chromene-5,6-dione]
- duration of AMP kinase phosphorylation effects (AMPK, ACC; HepG2, 10 μM): up to 6 hours
- initial time point at which phosphorylation of AMP kinase was observed (AMPK, ACC; HepG2, 10 μM): 30 min
- phosphorylation of ACC (AMPK, ACC; HepG2, 10 μM): also phosphorylated
- ACC phosphorylation and AMPK phosphorylation/activation (AMPK, ACC; HepG2 cells): accelerates
- intracellular ATP level (HEK293 cells): no significant changes in the intracellular ATP level
- intracellular ATP concentration (MN9D cells): decreased
